This note sets out measurements from US11945790B2 (ImmunoMolecular Therapeutics, Inc., priority 2020, dated 2024).

Each structure is given as a SMILES string.

The target in this test is HLA-DQ2 (Homo sapiens, UniProt P01909+P01920). Briefly: Inhibition of IL-2 secretion by TCR transductants stimulated by α-gliadin peptides presented by HLA-DQ2 expressing K562 cells (ELISA). It is filed as cell-based. As to conditions: inhibition of IL-2 secretion at 200 uM; tested as trans racemate unless otherwise noted; lines naming several Examples = stereoisomer mixture of those Examples. The procedure: Three commercially available analogues of the DQ2 binding molecules of the invention were tested for their ability to inhibit stimulation of T cell receptor (TCR) transductants in the presence of HLA-DQ2 expressing cells presenting known α-gliadin epitopes.
Chain of HLA-DQ2 (P01920 33-261 limits assumed, other chains not shown): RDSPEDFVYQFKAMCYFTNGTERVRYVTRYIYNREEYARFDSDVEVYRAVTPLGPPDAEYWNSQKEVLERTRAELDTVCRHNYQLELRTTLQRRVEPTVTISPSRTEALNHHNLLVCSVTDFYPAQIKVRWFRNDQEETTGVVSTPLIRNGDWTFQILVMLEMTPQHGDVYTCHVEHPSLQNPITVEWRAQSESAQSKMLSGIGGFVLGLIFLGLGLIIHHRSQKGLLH
Using a previously published in vitro assay (Ostrov D, et al. Methyldopa blocks MHC class II binding to disease specific antigens in autoimmune diabetes. J Clin Invest. 2018:128 (5)) the ability of these DQ2 binding analogues to inhibit interleukin-2 (IL-2) secretion by TCR transductants stimulated by α-gliadin peptides presented by HLA-DQ2 was determined. Individual TCR transductants (recognizing a I-gliadin or a II-gliadin) were cultured with a gliadin peptide plus the small molecule analogues in the presence of HLA-DQ2 expressing K562 cells serving as antigen presenting cells. TCR transductants cultured with no gliadin peptide served as the negative control, and incubation with an anti-CD3 antibody (eBioscience; clone 2C11) served as a positive control for the TCR transductant. Secreted IL-2 in the culture supernatant was measured using a highly sensitive enzyme-linked immunosorbent assay (ELISA). […] Assays for effects on cell viability and for specificity, assayed in the absence of gliadin peptide or in the presence of a stimulating anti-CD3 antibody, were performed. Unless otherwise noted, the stereochemistry shown below represents the relative configuration. Further, unless otherwise noted, compounds were tested as the trans racemate.
For `COC(=O)c1cccc(OCC(=O)N2CCN(C(=O)[C@@H]3C[C@H]3c3ccccc3)CC2)c1` [Example 101], the “% Inh at 200 uM” value is “A (A=≥75%)”.

On to `O=C(CS(=O)(=O)C1CCCC1)N1CCN(C(=O)[C@@H]2CC2c2ccccc2)CC1` (stereo partly drawn) [Example 102], for which the “% Inh at 200 uM” value is on record as “C (C=25-49%)”.

For `O=C(O)c1ccc(SCC(=O)N2CCN(C(=O)[C@@H]3C[C@H]3c3ccccc3)CC2)cc1` [Example 104], the “% Inh at 200 uM” value is recorded as “B (B=50-74%)”.

Consider `O=C(COc1ccccc1O)N1CCN(C(=O)[C@@H]2C[C@H]2c2ccccc2)CC1` [Example 105], for which the “% Inh at 200 uM” value is given as “B (B=50-74%)”.

In the case of `O=C(O)c1cccc(OCC(=O)N2CCN(C(=O)[C@@H]3C[C@H]3c3ccccc3)CC2)c1` [Example 107], the “% Inh at 200 uM” value is reported as “D (D=0-24%)”.

Consider `O=C(COc1ccc(F)cc1)N1CCN(C(=O)[C@@H]2C[C@H]2c2ccccc2)CC1` [Example 108], for which the “% Inh at 200 uM” value was “A (A=≥75%)”.

On to `O=C(O)CCOCC(=O)N1CCN(C(=O)[C@@H]2C[C@H]2c2ccccc2)CC1` [Example 110], for which the “% Inh at 200 uM” value is reported as “D (D=0-24%)”.

Regarding `O=C(O)CCNCC(=O)N1CCN(C(=O)[C@@H]2C[C@H]2c2ccccc2)CC1` [Example 111], the “% Inh at 200 uM” value was “D (D=0-24%)”.

For the compound `O=C(O)CCSCC(=O)N1CCN(C(=O)[C@@H]2C[C@H]2c2ccccc2)CC1` [Example 112], the “% Inh at 200 uM” value is “D (D=0-24%)”.

Turning to `O=C(O)CCCNCC(=O)N1CCN(C(=O)[C@@H]2C[C@H]2c2ccccc2)CC1` [Example 113], the “% Inh at 200 uM” value is “D (D=0-24%)”.

For the compound `O=C(O)CCCSCC(=O)N1CCN(C(=O)[C@@H]2C[C@H]2c2ccccc2)CC1` [Example 114], the “% Inh at 200 uM” value was “D (D=0-24%)”.

Regarding `O=C(CN1CCCC1=O)N1CCN(C(=O)[C@@H]2C[C@H]2c2ccccc2)CC1` [Example 115], the “% Inh at 200 uM” value is reported as “D (D=0-24%)”.
